Reference: the supplement of paper PMC11208160

experiment: recombinant UMI read abundance after kanamycin selection (control-corrected) (log10(CPM+1)); higher = more efficient recombination; extreme values may be limits of the assay; sequences stand for … in AGTGCAGAGAAAATCGGCCAGTTTTCTCTGCCTGCAGTCCGCATGCCGTGGGACCCCTTGGGTTCTAACCTGTTGCCTAGATTTATGCAGCGGACTGCCTTTCTCCCAAAGTGATAAACCGG…AGGTTGGTTTCACT; site = the 11-nt donor
Summary of the method: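 Two replicates each of selected and unselected plating were used in this pooled Escherichia coli screen of donor and donor-binding-loop pairs for the IS621 bridge recombinase. Selection was with IPTG (0.07 mM) and kanamycin. Counts of recombinant UMIs, amplified across the donor–target junction, were converted to CPM, averaged, scaled by control-derived factors and reported as log10(CPM+1).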
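Note: IS621 bridge recombinase in Escherichia coli cells against a fixed T5 target plasmid.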

Sequence | recombinant UMI read abundance (log10)
CCCCACACATGGACCGGTTTTCCCGGTAATCCGTATTTGTA (site CCCCACACTGA) | 0
CCCCACACATGGACCGGTTTTCCCGGTAATCCGTATTTGTA (site CCCCACACTTA) | 1.14
CCCCACACATGGACCGGTTTTCCCGGTAATCCGTATTTGTA (site CCCCACACTTC) | 0.0125
CCCCACACATGGACCGGTTTTCCCGGTAATCCGTATTTGTA (site CCCCACACTTG) | 0.586
CCCCACACATGGACCGGTTTTCCCGGTAATCCGTATTTGTA (site CCCCACACTTT) | 0.00983
CCCCACACATGGACCGGTTTTCCCGGTAATCCGTATTTGTA (site CCCCACCCTTA) | 0.00838
CCCCACACATGGACCGGTTTTCCCGGTAATCCGTATTTGTA (site CCCCACGCTTA) | 0.0198
CCCCACACATGGACCGGTTTTCCCGGTAATCCGTATTTGTA (site CCCCACTCTTA) | 0.273
CCCCACACATGGACCGGTTTTCCCGGTAATCCGTATTTGTA (site CCCCAGACTTA) | 0.0244
CCCCACACATGGACCGGTTTTCCCGGTAATCCGTATTTGTA (site CCCCATACTTA) | 0.0127
CCCCACACATGGACCGGTTTTCCCGGTAATCCGTATTTGTA (site CCCCCCACTTA) | 0.0246
CCCCACACATGGACCGGTTTTCCCGGTAATCCGTATTTGTA (site CCCCGCACTTA) | 0.0118
CCCCACACATGGACCGGTTTTCCCGGTAATCCGTATTTGTA (site CCCCTCACTTA) | 0.0137
CCCCACACATGGACCGGTTTTCCCGGTAATCCGTATTTGTA (site CCCGACACTTA) | 0.0189
CCCCACACATGGACCGGTTTTCCCGGTAATCCGTATTTGTA (site CCCTACACTTA) | 0.0176
CCCCACACATGGACCGGTTTTCCCGGTAATCCGTATTTGTA (site CCGCACACTTA) | 0.021
CCCCACACATGGACCGGTTTTCCCGGTAATCCGTATTTGTA (site CCTCACACTTA) | 0.0102
CCCCACACATGGACCGGTTTTCCCGGTAATCCGTATTTGTA (site CGCCACACTTA) | 0.016
CCCCACACATGGACCGGTTTTCCCGGTAATCCGTATTTGTA (site CTCCACACTTA) | 0.113
CCCCACACATGGACCGGTTTTCCCGGTAATCCGTATTTGTA (site GCCCACACTTA) | 0.00479
CCCCACACATGGACCGGTTTTCCCGGTAATCCGTATTTGTA (site TCCCACACTTA) | 0.0139
CCCCAGACATGGACCGGTTTTCCCGGTAATCCGTATTTGTA (site CCCCAAACTTA) | 0.459
CCCCAGACATGGACCGGTTTTCCCGGTAATCCGTATTTGTA (site CCCCACACTTA) | 0.0077

Sequence | recombinant UMI read abundance (log10)
CCCCAGACATGGACCGGTTTTCCCGGTAATCCGTATTTGTA (site CCCCAGACTTA) | 0.691
CCCCAGACATGGACCGGTTTTCCCGGTAATCCGTATTTGTA (site CCCCATACTTA) | 0.00999
CCCCCCACATGGACCGGTTTTCCCGGTAATCCGTATTTGTA (site CCCCACACTTA) | 0.00745
CCCCCCACATGGACCGGTTTTCCCGGTAATCCGTATTTGTA (site CCCCCCACTTA) | 0.82
CCCCCCACATGGACCGGTTTTCCCGGTAATCCGTATTTGTA (site CCCCGCACTTA) | 0.0126
CCCCCCACATGGACCGGTTTTCCCGGTAATCCGTATTTGTA (site CCCCTCACTTA) | 0.00445
CCCCGCACATGGACCGGTTTTCCCGGTAATCCGTATTTGTA (site CCCCACACTTA) | 0.48
CCCCGCACATGGACCGGTTTTCCCGGTAATCCGTATTTGTA (site CCCCCCACTTA) | 0.00659
CCCCGCACATGGACCGGTTTTCCCGGTAATCCGTATTTGTA (site CCCCGCACTTA) | 1.16
CCCCGCACATGGACCGGTTTTCCCGGTAATCCGTATTTGTA (site CCCCTCACTTA) | 0.00635
CCCCGCCCATGGACCGGTTTTCCCGGTAATCCGTATTTGTC (site CCCCGCCCTGA) | 0
CCCCGTACATGGACCGGTTTTCCCGGTAATCCGTATTTGAT (site CCCCGTACTAT) | 1.45
CCCCGTACATGGACCGGTTTTCCCGGTAATCCGTATTTGCT (site CACCGTACTAG) | 0.00449
CCCCGTACATGGACCGGTTTTCCCGGTAATCCGTATTTGCT (site CCCCGTACTAG) | 1.56
CCCCGTACATGGACCGGTTTTCCCGGTAATCCGTATTTGCT (site CGCCGTACTAG) | 0
CCCCGTACATGGACCGGTTTTCCCGGTAATCCGTATTTGCT (site CTCCGTACTAG) | 0.542
CCCCTCACATGGACCGGTTTTCCCGGTAATCCGTATTTGTA (site CCCCACACTTA) | 0.0243
CCCCTCACATGGACCGGTTTTCCCGGTAATCCGTATTTGTA (site CCCCCCACTTA) | 0.274
CCCCTCACATGGACCGGTTTTCCCGGTAATCCGTATTTGTA (site CCCCGCACTTA) | 0.0202
CCCCTCACATGGACCGGTTTTCCCGGTAATCCGTATTTGTA (site CCCCTCACTTA) | 1.15
CCCCTCGCATGGACCGGTTTTCCCGGTAATCCGTATTTGAA (site CCCCTCGCTTT) | 0.801
CCCCTCTCATGGACCGGTTTTCCCGGTAATCCGTATTTGGG (site CCCATCTCTCC) | 0
CCCCTCTCATGGACCGGTTTTCCCGGTAATCCGTATTTGGG (site CCCCTCTCTCC) | 0.0198

Sequence | recombinant UMI read abundance (log10)
CCCCTCTCATGGACCGGTTTTCCCGGTAATCCGTATTTGGG (site CCCGTCTCTCC) | 0.00587
CCCCTCTCATGGACCGGTTTTCCCGGTAATCCGTATTTGGG (site CCCTTCTCTCC) | 0
CCCCTTACATGGACCGGTTTTCCCGGTAATCCGTATTTGGT (site CCCCTTACTAC) | 0.238
CCCGACCCATGGACCGGTTTTCCCGGTAATCCGTATTTGAG (site CCCGACCCTCT) | 0.0182
CCCGAGTCATGGACCGGTTTTCCCGGTAATCCGTATTTGCC (site CCCGAGTCTGG) | 0.938
CCCGGCCCATGGACCGGTTTTCCCGGTAATCCGTATTTGCA (site CCCGGACCTTG) | 0.00734
CCCGGCCCATGGACCGGTTTTCCCGGTAATCCGTATTTGCA (site CCCGGCCCTTG) | 0
CCCGGCCCATGGACCGGTTTTCCCGGTAATCCGTATTTGCA (site CCCGGGCCTTG) | 0
CCCGGCCCATGGACCGGTTTTCCCGGTAATCCGTATTTGCA (site CCCGGTCCTTG) | 0.0145
CCCGGTTCATGGACCGGTTTTCCCGGTAATCCGTATTTGCA (site CCCGGTACTTG) | 0
CCCGGTTCATGGACCGGTTTTCCCGGTAATCCGTATTTGCA (site CCCGGTCCTTG) | 0
CCCGGTTCATGGACCGGTTTTCCCGGTAATCCGTATTTGCA (site CCCGGTGCTTG) | 0.0148
CCCGGTTCATGGACCGGTTTTCCCGGTAATCCGTATTTGCA (site CCCGGTTCTTG) | 1.83
CCCGTACCATGGACCGGTTTTCCCGGTAATCCGTATTTGCT (site CCCGTACCTAG) | 0
CCCGTCGCATGGACCGGTTTTCCCGGTAATCCGTATTTGCC (site CCCGTCGCTGG) | 1.45
CCCGTCTCATGGACCGGTTTTCCCGGTAATCCGTATTTGGG (site CCCATCTCTCC) | 0.0267
CCCGTCTCATGGACCGGTTTTCCCGGTAATCCGTATTTGGG (site CCCCTCTCTCC) | 0.0424
CCCGTCTCATGGACCGGTTTTCCCGGTAATCCGTATTTGGG (site CCCGTCTCTCC) | 0.0026
CCCGTCTCATGGACCGGTTTTCCCGGTAATCCGTATTTGGG (site CCCTTCTCTCC) | 0.018
CCCTAACCATGGACCGGTTTTCCCGGTAATCCGTATTTGCT (site CCCTAACCTAG) | 0
CCCTACTCATGGACCGGTTTTCCCGGTAATCCGTATTTGGG (site CCCTACTCTCC) | 0.346
CCCTACTCATGGACCGGTTTTCCCGGTAATCCGTATTTGGG (site CCCTCCTCTCC) | 0.00345
